Experimental data reported in ChEMBL document CHEMBL1201862, “PubChem BioAssay data set” (2004).
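In this assay, cells in 96-well plates receive the compound at five concentrations for 48 hours. Endpoints are linearly interpolated between the surrounding concentrations. GI50 = concentration required for 50% inhibition of growth.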 Active and inactive are the calls of the source. Rule as the data show it: active = GI50 up to about 1.1 µM and inactive = higher.

Key:
Assay in all cases: inhibition of tumour cell growth, NCI panel, 48 h
[1] = system: MDA-MB-435
[2] = system: KM12
[3] = system: T47D
[4] = system: K562
[5] = system: RXF 393
[6] = system: NCI-H460
[7] = system: IGROV-1
[8] = system: NCI-H23
[9] = system: OVCAR-4
[10] = system: SF-268
[11] = system: NCI-H522
[12] = system: U-251
[13] = system: SNB-75
[14] = system: A549
[15] = system: M14
[16] = system: OVCAR-5
[17] = system: OVCAR-3
[18] = system: ACHN
[19] = system: MOLT-4
[20] = system: UO-31
[21] = system: NCI-H226
[22] = system: 786-0
[23] = system: BT-549
[24] = system: Hs-578T
[25] = system: HL-60
[26] = system: OVCAR-8
[27] = system: SK-MEL-5
[28] = system: DU-145
[29] = system: SR
[30] = system: CCRF-CEM
[31] = system: SF-539
[32] = system: UACC-257
[33] = system: TK-10
[34] = system: HT-29
[35] = system: SNB-19
[36] = system: EKVX
[37] = system: MDA-N
[38] = system: SF-295
[39] = system: CAKI-1
[40] = system: HOP-92
[41] = system: SK-OV-3
[42] = system: LOX IMVI
[43] = system: MCF7
[44] = system: Malme-3M
[45] = system: SW-620
[46] = system: HCT-15
[47] = system: PC-3
[48] = system: RPMI-8226
[49] = system: COLO 205
[50] = system: NCI/ADR-RES
[51] = system: UACC-62
[52] = system: SN12C
[53] = system: SK-MEL-2
[54] = system: HCT-116
[55] = system: A498
[56] = system: HOP-62

With COc1cc(/C=N/Nc2nnc3c4ccccc4c4ncccc4c3n2)cc(OC)c1OC the GI50 [1] was 5.12 µM (inactive), the GI50 [2] was 9.29 µM (inactive) and the GI50 [3] was 1.21 µM (inactive). For the same compound, the GI50 [4] was 3.17 µM (inactive), the GI50 [5] was 4.72 µM (inactive) and the GI50 [6] was 0.728 µM (active). For the same compound, the GI50 [7] was 1.04 µM (active), the GI50 [8] was 2.57 µM (inactive) and the GI50 [9] was 6.46 µM (inactive). For the same compound, the GI50 [10] was 6.58 µM (inactive), the GI50 [11] was 2.47 µM (inactive) and the GI50 [12] was 4.21 µM (inactive). For the same compound, the GI50 [13] was 3.82 µM (inactive), the GI50 [14] was 2.79 µM (inactive) and the GI50 [15] was 8.51 µM (inactive). For the same compound, the GI50 [16] was 5.13 µM (inactive), the GI50 [17] was 3.53 µM (inactive) and the GI50 [18] was 5.85 µM (inactive). The GI50 [19] was 2.9 µM (inactive), the GI50 [20] was 3.39 µM (inactive) and the GI50 [21] was 3.01 µM (inactive). For the same compound, the GI50 [22] was 5.83 µM (inactive), the GI50 [23] was 6.22 µM (inactive) and the GI50 [24] was 4.74 µM (inactive). The GI50 [25] was 3.62 µM (inactive), the GI50 [26] was 2.23 µM (inactive) and the GI50 [27] was 4.31 µM (inactive). The GI50 [28] was 3.31 µM (inactive), the GI50 [29] was 3.37 µM (inactive) and the GI50 [30] was 2.63 µM (inactive). For the same compound, the GI50 [31] was 3.71 µM (inactive), the GI50 [32] was 1.97 µM (inactive) and the GI50 [33] was 4.28 µM (inactive). For the same compound, the GI50 [34] was 2.02 µM (inactive), the GI50 [35] was 6.71 µM (inactive) and the GI50 [36] was 9.82 µM (inactive). The GI50 [37] was 1.61 µM (inactive) and the GI50 [38] was 3.49 µM (inactive).
For CCOC(=O)CCC(C(=O)OCC)n1nnc2cc(Nc3c(C)[n+]([O-])c4cc(Cl)ccc4[n+]3[O-])ccc21 (stereo not drawn), the GI50 [39] was 93.3 µM (inactive), the GI50 [1] was > 100 µM (inactive) and the GI50 [2] was > 100 µM (inactive). For the same compound, the GI50 [3] was 47.2 µM (inactive), the GI50 [4] was 59.2 µM (inactive) and the GI50 [5] was 53.6 µM (inactive). For the same compound, the GI50 [6] was 48.3 µM (inactive), the GI50 [7] was > 100 µM (inactive) and the GI50 [8] was 60.5 µM (inactive). The GI50 [9] was 77.4 µM (inactive), the GI50 [10] was 38.4 µM (inactive) and the GI50 [11] was > 100 µM (inactive). The GI50 [12] was 80.4 µM (inactive), the GI50 [40] was 67.9 µM (inactive) and the GI50 [41] was > 100 µM (inactive). For the same compound, the GI50 [13] was 89.3 µM (inactive), the GI50 [14] was > 100 µM (inactive) and the GI50 [42] was 69.2 µM (inactive). For the same compound, the GI50 [15] was 44.6 µM (inactive), the GI50 [16] was 62.8 µM (inactive) and the GI50 [17] was 40.2 µM (inactive). For the same compound, the GI50 [43] was 28.2 µM (inactive), the GI50 [18] was 46.2 µM (inactive) and the GI50 [44] was > 100 µM (inactive). For the same compound, the GI50 [45] was 88.7 µM (inactive), the GI50 [46] was 43.9 µM and the GI50 [19] was 49.1 µM (inactive). For the same compound, the GI50 [47] was > 100 µM (inactive), the GI50 [20] was 72.6 µM (inactive) and the GI50 [21] was 32.9 µM (inactive). The GI50 [48] was 37.2 µM (inactive), the GI50 [49] was 41.7 µM (inactive) and the GI50 [22] was 59.2 µM (inactive). For the same compound, the GI50 [23] was > 100 µM (inactive), the GI50 [24] was > 100 µM (inactive) and the GI50 [50] was 35.1 µM (inactive). The GI50 [25] was 41.3 µM (inactive), the GI50 [51] was 55.7 µM (inactive) and the GI50 [26] was > 100 µM (inactive). The GI50 [27] was 49.8 µM (inactive), the GI50 [28] was > 100 µM (inactive) and the GI50 [52] was 96.6 µM (inactive). The GI50 [30] was 35.6 µM (inactive), the GI50 [31] was 95.5 µM (inactive) and the GI50 [32] was 40.1 µM (inactive). For the same compound, the GI50 [33] was > 100 µM (inactive), the GI50 [53] was 77.8 µM (inactive) and the GI50 [54] was 47.9 µM (inactive). The GI50 [55] was > 100 µM (inactive), the GI50 [34] was 76 µM (inactive) and the GI50 [35] was > 100 µM (inactive). The GI50 [56] was 46.8 µM (inactive), the GI50 [36] was 14.2 µM (inactive) and the GI50 [37] was > 100 µM (inactive). For the same compound, the GI50 [38] was 68.5 µM (inactive).
